From ChEMBL document CHEMBL1201862, “PubChem BioAssay data set” (2004)
The source made the active and inactive calls.

Key:
[1] = tested on: CHO; assay: CHO cell viability loss, potency – luminescence, cytotoxicity control for TLR9-MyD88 binding inhibitor project, dose response (AID 588339); type: functional, cell-based, hamster; settings: Cricetulus griseus;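 note: CHO cells stably coexpressing TLR9 and MyD88 fusions from primary screen; compound exposure lasted 48 hours before viability readout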
[2] = target: T1, Replicative DNA helicase DnaB (Mycobacterium tuberculosis, UniProt P9WMR3); assay: DnaB intein splicing inhibitors, dose response, biochemical, cell-free fluorescence (AID 449749); type: functional
T1 sequence (P9WMR3 whole entry): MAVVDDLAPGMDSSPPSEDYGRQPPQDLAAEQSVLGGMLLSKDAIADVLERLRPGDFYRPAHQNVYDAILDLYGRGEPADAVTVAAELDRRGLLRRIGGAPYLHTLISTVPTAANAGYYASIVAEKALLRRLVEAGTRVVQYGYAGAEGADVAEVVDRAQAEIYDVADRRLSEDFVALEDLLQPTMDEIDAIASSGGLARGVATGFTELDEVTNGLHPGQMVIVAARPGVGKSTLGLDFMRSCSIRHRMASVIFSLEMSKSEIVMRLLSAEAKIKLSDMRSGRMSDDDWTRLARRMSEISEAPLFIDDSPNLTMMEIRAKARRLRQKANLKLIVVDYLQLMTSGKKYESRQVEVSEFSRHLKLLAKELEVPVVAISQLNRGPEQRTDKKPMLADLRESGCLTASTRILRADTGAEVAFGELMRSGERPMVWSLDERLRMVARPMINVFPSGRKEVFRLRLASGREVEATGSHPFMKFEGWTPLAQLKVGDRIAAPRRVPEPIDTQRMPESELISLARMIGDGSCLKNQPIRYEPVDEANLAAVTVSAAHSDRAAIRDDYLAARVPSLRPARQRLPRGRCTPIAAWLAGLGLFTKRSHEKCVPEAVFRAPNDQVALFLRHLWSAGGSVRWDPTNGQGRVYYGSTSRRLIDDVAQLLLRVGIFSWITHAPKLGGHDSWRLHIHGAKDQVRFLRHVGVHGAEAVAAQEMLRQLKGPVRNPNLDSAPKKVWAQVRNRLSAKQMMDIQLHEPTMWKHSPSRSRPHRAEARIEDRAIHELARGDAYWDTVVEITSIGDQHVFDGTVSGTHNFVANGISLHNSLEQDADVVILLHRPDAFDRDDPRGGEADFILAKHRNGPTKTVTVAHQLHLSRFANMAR

[3] = target: T2, Protein RecA (Mycobacterium tuberculosis, UniProt P9WHJ3); assay: Fluorescence Cell-Free Homogeneous Dose Retest to Identify Inhibitors of RecA-Intein Splicing Activity. [Related pubchem assays (depositor defined):AID2097, AID2223, AID489010, AID492950]; type: functional
T2 sequence (P9WHJ3 whole entry): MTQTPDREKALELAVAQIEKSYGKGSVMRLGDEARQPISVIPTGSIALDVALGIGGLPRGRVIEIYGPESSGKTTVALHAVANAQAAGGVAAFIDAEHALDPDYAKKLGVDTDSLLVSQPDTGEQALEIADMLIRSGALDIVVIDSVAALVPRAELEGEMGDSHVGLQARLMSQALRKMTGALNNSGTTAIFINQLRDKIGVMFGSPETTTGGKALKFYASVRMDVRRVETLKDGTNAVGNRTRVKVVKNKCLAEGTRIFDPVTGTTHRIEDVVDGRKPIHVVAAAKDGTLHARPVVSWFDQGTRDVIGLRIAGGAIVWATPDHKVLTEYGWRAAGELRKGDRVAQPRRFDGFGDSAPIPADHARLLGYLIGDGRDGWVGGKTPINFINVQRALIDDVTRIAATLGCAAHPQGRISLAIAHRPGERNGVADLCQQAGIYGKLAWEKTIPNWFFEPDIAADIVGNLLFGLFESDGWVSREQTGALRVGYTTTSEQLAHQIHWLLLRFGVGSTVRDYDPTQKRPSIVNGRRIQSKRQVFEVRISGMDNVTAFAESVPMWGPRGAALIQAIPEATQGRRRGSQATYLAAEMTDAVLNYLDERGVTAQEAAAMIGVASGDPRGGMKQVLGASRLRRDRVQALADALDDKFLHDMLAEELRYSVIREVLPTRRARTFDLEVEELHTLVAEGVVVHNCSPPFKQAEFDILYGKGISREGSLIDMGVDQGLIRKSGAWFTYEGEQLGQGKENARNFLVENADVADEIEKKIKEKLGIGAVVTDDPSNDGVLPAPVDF

[4] = target: Beta Lactamase (Pseudomonas aeruginosa, UniProt Q932Y6); assay: BLA reporter interference, concentration series – BLA reporter cells, FRET fluorescence, artefact control for TLR9-MyD88 binding inhibitor project, dose response (AID 588341); type: cell-based;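 note: cell based assay in CHO-K1 cells stably expressing beta-lactamase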
Beta Lactamase, sequence (Q932Y6 whole entry): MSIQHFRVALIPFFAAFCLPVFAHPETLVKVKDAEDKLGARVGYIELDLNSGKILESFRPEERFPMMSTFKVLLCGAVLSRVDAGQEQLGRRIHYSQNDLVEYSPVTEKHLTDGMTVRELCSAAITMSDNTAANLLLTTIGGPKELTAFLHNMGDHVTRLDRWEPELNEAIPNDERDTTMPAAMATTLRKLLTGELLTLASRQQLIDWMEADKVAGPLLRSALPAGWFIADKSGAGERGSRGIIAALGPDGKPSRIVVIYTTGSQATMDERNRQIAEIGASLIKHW

[5] = reduction of Shn3 3'UTR-driven luciferase in osteoblasts – cell-based, Clone20 osteoblasts, firefly luciferase, cherry-picked, dose response (AID 624132); type: functional;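 note: firefly luciferase luminescence from reporter carrying the Shn3 3'UTR in osteoblasts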
[6] = loss of viability in HepG2 cells – cell-based, CellTiter-Glo, cherry-picked, cytotoxicity control for Shn3 inhibitor project, dose response (AID 624134); type: functional
[7] = non-specific 3'UTR reporter inhibition in Clone20-Shn3RL – cell-based, Renilla luciferase, cherry-picked, counter-screen for Shn3 inhibitor project, dose response (AID 624133); type: functional
[8] = target: T3, Fatty acid synthase (Homo sapiens, UniProt P49327); assay: inhibition of human FAS-TE enzyme activity – biochemical, endpoint fluorescence intensity, uHTS hits, dose response (AID 624327); type: functional;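 note: fluorescence from hydrolysis of an O-methyl fluorescein acyl ester substrate by the enzyme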
T3 sequence (P49327 whole entry): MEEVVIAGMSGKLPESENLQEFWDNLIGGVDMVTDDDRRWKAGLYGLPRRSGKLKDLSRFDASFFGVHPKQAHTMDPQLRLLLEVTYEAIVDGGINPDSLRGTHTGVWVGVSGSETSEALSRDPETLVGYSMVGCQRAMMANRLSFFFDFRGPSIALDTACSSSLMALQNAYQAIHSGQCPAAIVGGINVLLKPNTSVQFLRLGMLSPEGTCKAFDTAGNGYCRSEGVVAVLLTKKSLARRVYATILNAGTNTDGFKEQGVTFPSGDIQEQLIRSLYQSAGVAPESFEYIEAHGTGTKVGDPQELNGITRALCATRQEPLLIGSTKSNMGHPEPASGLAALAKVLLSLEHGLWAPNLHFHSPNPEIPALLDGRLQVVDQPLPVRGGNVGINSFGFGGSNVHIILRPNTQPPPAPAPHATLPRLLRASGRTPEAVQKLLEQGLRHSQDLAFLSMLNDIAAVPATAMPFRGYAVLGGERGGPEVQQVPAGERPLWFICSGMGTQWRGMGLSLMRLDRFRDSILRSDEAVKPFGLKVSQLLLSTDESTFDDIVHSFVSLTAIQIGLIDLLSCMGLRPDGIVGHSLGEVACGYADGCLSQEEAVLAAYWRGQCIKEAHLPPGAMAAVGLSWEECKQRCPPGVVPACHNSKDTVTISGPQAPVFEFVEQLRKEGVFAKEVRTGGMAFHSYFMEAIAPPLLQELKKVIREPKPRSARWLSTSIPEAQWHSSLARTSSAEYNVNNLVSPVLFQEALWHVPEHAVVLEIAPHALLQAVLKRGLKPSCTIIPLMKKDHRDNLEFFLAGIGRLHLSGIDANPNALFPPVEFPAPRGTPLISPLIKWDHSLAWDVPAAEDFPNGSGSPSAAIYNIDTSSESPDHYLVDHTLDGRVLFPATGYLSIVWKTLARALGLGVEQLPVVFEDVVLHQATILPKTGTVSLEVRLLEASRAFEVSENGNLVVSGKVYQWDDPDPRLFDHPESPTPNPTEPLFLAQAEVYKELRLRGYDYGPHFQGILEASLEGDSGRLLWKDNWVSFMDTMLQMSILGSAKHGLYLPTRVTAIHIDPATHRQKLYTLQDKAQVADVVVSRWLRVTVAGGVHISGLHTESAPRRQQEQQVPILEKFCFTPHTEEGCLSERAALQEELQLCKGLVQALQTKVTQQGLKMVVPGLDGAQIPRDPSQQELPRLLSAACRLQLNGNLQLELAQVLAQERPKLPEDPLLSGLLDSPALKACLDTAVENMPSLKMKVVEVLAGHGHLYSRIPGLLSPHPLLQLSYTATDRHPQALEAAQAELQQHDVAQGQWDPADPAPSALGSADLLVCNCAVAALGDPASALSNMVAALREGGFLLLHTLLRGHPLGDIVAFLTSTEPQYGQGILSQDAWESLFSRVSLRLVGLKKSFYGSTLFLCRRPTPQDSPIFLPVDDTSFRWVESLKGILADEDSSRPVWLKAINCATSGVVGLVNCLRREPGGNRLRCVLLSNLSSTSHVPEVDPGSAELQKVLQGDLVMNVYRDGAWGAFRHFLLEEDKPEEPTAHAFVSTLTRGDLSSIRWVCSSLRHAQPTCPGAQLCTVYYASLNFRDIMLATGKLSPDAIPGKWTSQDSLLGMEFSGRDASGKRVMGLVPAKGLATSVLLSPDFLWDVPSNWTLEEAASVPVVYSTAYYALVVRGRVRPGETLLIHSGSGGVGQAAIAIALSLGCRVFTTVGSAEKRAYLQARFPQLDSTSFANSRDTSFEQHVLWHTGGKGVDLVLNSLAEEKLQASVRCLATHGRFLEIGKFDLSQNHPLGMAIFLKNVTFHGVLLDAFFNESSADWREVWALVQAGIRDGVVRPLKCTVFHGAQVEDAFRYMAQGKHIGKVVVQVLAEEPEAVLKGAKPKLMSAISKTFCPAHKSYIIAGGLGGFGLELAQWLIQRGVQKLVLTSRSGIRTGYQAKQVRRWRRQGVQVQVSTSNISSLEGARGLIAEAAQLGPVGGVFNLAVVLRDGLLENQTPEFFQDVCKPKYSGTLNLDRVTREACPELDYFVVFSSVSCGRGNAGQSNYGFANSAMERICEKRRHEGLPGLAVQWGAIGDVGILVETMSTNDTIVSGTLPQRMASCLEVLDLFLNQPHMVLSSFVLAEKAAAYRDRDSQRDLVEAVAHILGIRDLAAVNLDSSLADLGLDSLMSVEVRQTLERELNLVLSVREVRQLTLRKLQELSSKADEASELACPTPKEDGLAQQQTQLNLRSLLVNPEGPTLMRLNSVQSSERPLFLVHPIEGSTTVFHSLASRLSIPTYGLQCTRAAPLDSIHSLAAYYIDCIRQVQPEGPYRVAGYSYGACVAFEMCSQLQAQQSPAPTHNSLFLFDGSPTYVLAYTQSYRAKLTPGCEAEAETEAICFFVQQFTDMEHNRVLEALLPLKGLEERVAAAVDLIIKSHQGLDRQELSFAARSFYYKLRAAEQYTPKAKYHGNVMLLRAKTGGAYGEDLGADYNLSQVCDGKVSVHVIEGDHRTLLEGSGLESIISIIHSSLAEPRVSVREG

[9] = target: T3, Fatty acid synthase; assay: inhibition of human FAS-TE enzyme activity – biochemical, kinetic fluorescence intensity, dose response (AID 624326); type: functional;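 note: rate of fluorescence rise from hydrolysis of a fluorogenic O-methyl fluorescein ester substrate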
[10] = target: T4, Endoribonuclease toxin MazF (Escherichia coli K-12, UniProt P0AE70); assay: activation of MazEF endoribonuclease cleavage – biochemical, fluorescence, single-stranded RNA substrate, uHTS hits, dose response (AID 588481); type: functional
T4 sequence (P0AE70 whole entry): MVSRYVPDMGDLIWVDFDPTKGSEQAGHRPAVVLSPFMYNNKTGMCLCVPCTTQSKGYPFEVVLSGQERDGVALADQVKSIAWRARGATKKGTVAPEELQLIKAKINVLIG

[11] = target: T4, Endoribonuclease toxin MazF; assay: substrate-only fluorescence increase artefacts – biochemical, single-stranded RNase substrate, counter-screen for MazEF activator project, dose response (AID 588502); type: functional

| SMILES | IC50 [1] | AC50 [2] | EC50 [3] | IC50 [4] | AC50 [5] | AC50 [6] | AC50 [7] | IC50 [8] | IC50 [9] | EC50 [10] | EC50 [11] |
| --- | --- | --- | --- | --- | --- | --- | --- | --- | --- | --- | --- |
| CCCC(=O)OCCNc1cc(Sc2nc3ccccc3[nH]2)c2nonc2c1[N+](=O)[O-] | 4.59 µM (active) | 0.855 µM (active) | 0.657 µM (active) | 10.9 µM (inactive) | 6.63 µM (active) | 24.2 µM (active) | 8.96 µM (active) | 2.2 µM (active) | 1.34 µM (active) |  |  |
| Cc1cc(C)c(NC(=O)Cn2nnc(C(=O)NCc3ccc4c(c3)OCO4)c2N)c(C)c1 |  |  |  |  |  |  |  |  |  | > 99 µM (inactive) | > 99 µM (inactive) |
